According to patent US20070054325A1, “Materials and methods for screening modulators of neural regeneration” (REGLIA, priority 2005, published 2007):
Where two headings read alike, the source gives them in different places. Bridges are numbered along the chain shown (N, C = ends). Where no end group is shown, it is not given here.

Tests used:
ETBR = conditions: Rogers et al., Glia 2003, cited from earlier work
C3aR = target: T1, C3aR (Mus musculus, UniProt O09047); assay: Basal neurogenesis in mice treated with a C3aR antagonist (BrdU/Dcx/NeuN immunostaining); format: in vivo, wild-type C57BL/6 mice; conditions: for number of Dcx^posBrdU^pos cells, lower compared to control mice: 500 μg/mouse twice daily for 10 days
T1 construct: wild-type C57BL/6 mice (8 week old male; n=12) were injected with a nonpeptide antagonist of the C3aR; from tissue; host or cells: living wild-type C57BL/6 mice; read-out in brain (SVZ, dentate gyrus, olfactory bulb)
T1 sequence (O09047 1-477): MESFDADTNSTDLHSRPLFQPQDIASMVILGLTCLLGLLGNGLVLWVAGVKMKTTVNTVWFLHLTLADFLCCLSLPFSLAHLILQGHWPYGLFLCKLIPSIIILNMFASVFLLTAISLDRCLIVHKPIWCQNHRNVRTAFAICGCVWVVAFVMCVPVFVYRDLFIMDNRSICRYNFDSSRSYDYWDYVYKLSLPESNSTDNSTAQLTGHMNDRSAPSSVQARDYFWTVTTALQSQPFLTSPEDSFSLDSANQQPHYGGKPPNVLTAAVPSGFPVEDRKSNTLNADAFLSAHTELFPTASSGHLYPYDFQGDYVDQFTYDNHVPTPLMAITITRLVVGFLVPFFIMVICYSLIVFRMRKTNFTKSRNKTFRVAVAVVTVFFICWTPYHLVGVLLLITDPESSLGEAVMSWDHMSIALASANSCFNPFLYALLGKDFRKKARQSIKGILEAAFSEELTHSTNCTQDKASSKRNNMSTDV
Procedure: To assess whether signaling through the C3aR plays a role in basal neurogenesis, wild-type C57BL/6 mice (8 week old male; n=12) were injected with a nonpeptide antagonist of the C3aR, SB290157 (Calbiochem, San Diego, Calif., USA; 500 μg/mouse; Ames et al., J. Immunol. 166:6341-6348, 2001) diluted in PBS and DMSO (1.16% v/v) twice daily or vehicle for 10 days. Control mice (n=10) were given PBS and DMSO (1.16% v/v). During the first 7 days, all the mice also received bromodeoxyuridine (BrdU) (Sigma-Aldrich; 200 mg/kg). On day 10 after the first injection, the mice were deeply anesthetized and perfused.
Mouse brains were embedded in paraffin, cut into 8-μm sections, and stained with hematoxylin and erytrosin. For immunohistochemical evaluation, the sections were deparaffinized, permeabilized in 0.01 M citric acid (pH 6.0), heated twice for 5 min each in a microwave oven for antigen retrieval, and blocked with 0.1% BSA and 0.05% Triton-X-100 in PBS. Negative control was performed by omitting the primary antibody, unless stated otherwise.
Newly formed neurons were visualized by staining with biotinylated mouse anti-NeuN monoclonal antibody (Chemicon, Temecula, Calif., USA; 1:100) followed by Cy3-conjugated streptavidin (Sigma-Aldrich; 1:100) or Alexa633-conjugated streptavidin (Molecular Probes; 1:500) in combination with FITC-conjugated rat anti-BrdU antibody (Accurate Chemical, Westbury, N.Y., USA; 1:75). NeuN^pos BrdU^pos cells were counted in the penumbra on 2-3 sections per mouse. BrdU^pos cells were also counted in the SVZ. The sections were further stained with mouse anti-BrdU antibody (DAKO; 1:100) and Alexa 568 conjugated goat anti-mouse Ig (Molecular Probes; 1:500). BrdU^pos and NeuN^posBrdU^pos cells were counted in one hemisphere on 4-12 sections 160 μm apart/region in the granular layer of the olfactory bulb (bregma 3.2 mm to 4.28 mm) and dentate gyrus subgranular zone (bregma −1.34 mm to −3.64 mm).
Migrating neural progenitor cells were detected with goat anti-doublecortin (Dcx) antibody (Santa Cruz Biotechnology, Santa Cruz, Calif., USA; 1:50) followed by Alexa488-conjugated donkey anti-goat Ig (Molecular Probes; 1:100). Sections were further stained with mouse anti-BrdU antibody. BrdU^pos and Dcx^posBrdU^pos cells were counted in one hemisphere on 4-12 sections 160 μm apart/region in the SVZ (bregma 0.14 mm to 1.1 mm), the granular layer of the olfactory bulb (bregma 3.2 mm to 4.28 mm), and dentate gyrus subgranular zone (bregma −1.34 mm to −3.64 mm).
Proliferating migrating neuroblasts (Dcx^posBrdU^pos), newly formed neurons (NeuN^posBrdU^pos) and BrdU^pos cells were counted in the two principal sites of adult neurogenesis, SVZ and the dentate gyrus subgranular zone of the hippocampus, as well as in the olfactory bulb, the final destination for the neuroblasts originating in SVZ under basal conditions. In all three regions, the number of Dcx^posBrdU^pos cells was reduced in mice that received the C3aR antagonist. […] Also, the fraction of these cells among the BrdU^pos cells was reduced in the C3aR antagonist-treated mice: 19.0±1.1 vs. 26.7±1.7%, P<0.005 in the olfactory bulb; 13.1±0.6 vs. 17.3±0.8%, P<0.0005 in the dentate gyrus subgranular zone; and 26.4±0.8 vs. 31.4±1.2%, P<0.005 in the SVZ. […] The fraction of these cells among the BrdU^pos cells was reduced in the C3aR antagonist treated mice: 1.2±0.1 vs. 1.7±0.1%, P<0.005 in the olfactory bulb; 1.7±0.1 vs. 2.3±0.2%, P<0.05 in the dentate gyrus subgranular zone. The number of BrdU^pos cells in any of the regions was not affected by the C3aR antagonist treatment.

[1] = test system: Neural stem cells, e.g., HCNA 94/GFPH; assay: Neural stem cell differentiation assay (MAP2 immunostaining, DAPI); format: cell-based
Procedure: It was previously known that it was possible to modulate cells, other than neurons, via C3aR. Accordingly, C3aR antagonists blocked modulation via the receptor and C3aR agonists stimulated the receptor. To evaluate the effect of C3aR agonists on neural stem cell differentiation in vitro, a neural stem cell differentiation assay was performed as set out below.
Neural stem cells, e.g., HCNA 94/GFPH, were cultured with a C3aR agonist (C3a) at a concentration of either 10 nM or 100 nM for three to ten days in the presence and absence of a known C3aR antagonist, SB290157 (Ames at al., J. Immunol. 166: 6341-6348, 2001), at a concentration of 5-10 μM, administered to the culture either prior to or at the same time as the C3aR agonist. The number of cells that differentiated into neurons was measured by immunostaining with antibodies against MAP2 (Sigma) and visualized using 4′,6-Diamidino-2-phenylindole (DAPI) staining. A compound is regarded as a stimulator of neural stem cell differentiation into neurons if it stimulates differentiation into neurons at a rate at least 25% greater than control cells (cultured in the presence of medium alone). The effect of the C3aR agonist on neural stem cell differentiation was not blocked by SB290157 (see Table 5 below). Thus, SB290157 was not effective in inhibited neuronal cell differentiation at the concentrations tested.

endothelin 1: endothelin peptide, an ETBR agonist (CSCSSLMDKECVYFCHLDIIW; disulfide 1-15, 3-11; ends not checked; UniProt P05305 53-73, looked up)
effect on astrocyte hypertrophy (ETBR; ETBR agonist administration): leads to astrocyte hypertrophy

COc1ccccc1Oc1c(NS(=O)(=O)c2ccc(C(C)(C)C)cc2)nc(-c2ncccn2)nc1OCCO [Bosenthan]
effect on astrocyte hypertrophy (ETBR; ETBR antagonist in CNS trauma): reduced astrocyte hypertrophy

NC(N)=NCCC[C@H](NC(=O)COCC(c1ccccc1)c1ccccc1)C(=O)O [SB290157]
number of Dcx^posBrdU^pos cells, lower compared to control mice (C3aR; SVZ, P<0.05): 12.5%
fraction of Dcx^posBrdU^pos cells among the BrdU^pos cells (C3aR; SVZ, control 31.4±1.2%, P<0.005): 26.4±0.8%
number of BrdU^pos cells (C3aR; any of the regions (SVZ, dentate gyrus subgranular zone, olfactory bulb)): not affected
number of Dcx^posBrdU^pos cells, lower compared to control mice (C3aR; dentate gyrus subgranular zone, P<0.0005): 27%
fraction of NeuN^posBrdU^pos cells among the BrdU^pos cells (C3aR; dentate gyrus subgranular zone, control 2.3±0.2%, P<0.05): 1.7±0.1%
fraction of Dcx^posBrdU^pos cells among the BrdU^pos cells (C3aR; dentate gyrus subgranular zone, control 17.3±0.8%, P<0.0005): 13.1±0.6%
reduction in the number of NeuN^posBrdU^pos cells (C3aR; olfactory bulb and dentate gyrus subgranular zone, P<0.005): 22-25%
number of Dcx^posBrdU^pos cells, lower compared to control mice (C3aR; olfactory bulb, P<0.0005): 34%
fraction of NeuN^posBrdU^pos cells among the BrdU^pos cells (C3aR; olfactory bulb, control 1.7±0.1%, P<0.005): 1.2±0.1%
fraction of Dcx^posBrdU^pos cells among the BrdU^pos cells (C3aR; olfactory bulb, control 26.7±1.7%, P<0.005): 19.0±1.1%
inhibition of the C3aR agonist effect on neural stem cell differentiation ([1]; SB290157 5-10 μM, given prior to or with C3a 10 or 100 nM): not effective
% of MAP2+ Cells Among All DAPI+ Cells (Mean ± SEM) ([1]; SD290157 5 μM alone, culture medium alone 2.54 ± 0.12): 2.70 ± 0.19%
